# Data taken from PMC2222791, “Induction of the oxidative catabolism of retinoid acid in MCF-7 cells” (British Journal of Cancer, 1997).
# “And” between values parts separate entries of the source, which are not always exact repeats. Equal entries are not always repeated. Where two headings read alike, the source gives them in different places. Starred links: 1 amine or outer side, 2 acyl side, 3 side chain; linkers in the order of their positions; H or OH if unused. Positions of bridges follow the written chain, without caps; N, C: chain ends. Non-standard residues stand in square brackets, D forms with d. Residues, ends and D or L forms follow the SMILES beside them. Chains are numbered I, II in the order given. Actinocin(9to1) = Cc1c2oc3c(C)ccc(C(=O)[*:1])c3nc-2c(C(=O)[*:2])c(N)c1=O; NMeV = CN[C@H](C(=O)O)C(C)C; Sar = CNCC(=O)O
# How the values were obtained:
# RARs = tested on: RARs; parameters: method as in Duell et al, 1992; settings: ref Duell et al, 1992; cited from earlier work
# BA-HAN-IC = BA-HAN-IC cells; ref Ramp et al, 1994; cited from earlier work
# [1] = tested on: all-trans-RA catabolism in MCF-7 cells; assay: Inhibition of induced all-trans-RA catabolism in MCF-7 cells; type: cell-based, human; settings: for IC50: MCF-7 cells preincubated 24 h with 10^-6 M all-trans-RA, 10^-7 M [3H]all-trans-RA as substrate, mean ± s.d., three experiments in duplicate; for Activity in inhibiting all-trans-RA catabolism, times less than all-trans-RA: relative to all-trans-RA, from IC50 values of Table 2; for Inhibition of induced all-trans-RA catabolism, in words: induced MCF-7 cells, 10^-7 M [3H]all-trans-RA, CH55 up to 10 μM
# MCF-7 cells [2] = tested on: MCF-7 cells
# HL-60 leukaemia cells = tested on: HL-60 leukaemia cells; parameters: method as in Bollag and Holdener, 1992; Matsushima et al, 1992; settings: ref Bollag and Holdener, 1992, Matsushima et al; cited from earlier work
# MCF-7 cells [3] = assay: Viability of MCF-7 cells after preincubation (trypan blue); settings: 24 h preincubation, varying concentrations, results not shown
# [4] = tested on: RbTE cells and HL-60 leukaemia cells; parameters: method as in Jetten et al, 1987; settings: ref Jetten et al, 1987; cited from earlier work
# [5] = tested on: all-trans-RA catabolism in MCF-7 cells; assay: Induction of all-trans-RA catabolism in MCF-7 cells by preincubation with retinoids (microcolumn assay); settings: for RA catabolism (% of control): 24 h preincubation
# hamster liver microsomes = settings: read-out: Km value of all-trans-RA catabolism, cited from earlier work
# [6] = tested on: rat Dunning R3327G tumour homogenates; settings: cited from earlier work
# CRABP-II mRNA = assay: Northern blotting for CRABP mRNA in MCF-7 cells; type: cell-based, human
# Description: (§1) British Journal of Cancer (1997) 75(8), 1098-1104 ? […] Quantification was performed by optical densitometric scanning. […] Data are shown as mean ? s.d.
# [7] = tested on: all-trans-RA catabolism in MCF-7 cells; assay: Enzyme characteristics of induced all-trans-RA catabolism (Michaelis-Menten, Lineweaver-Burk); type: cell-based, human; settings: MCF-7 cells preincubated 24 h with 10^-6 M all-trans-RA; substrate 5 x 10^-9 to 10^-6 M [3H]all-trans-RA; overall formation of polar metabolites; read-out: Estimated Km value of induced all-trans-RA catabolism
# Description: as §1
# rat liver homogenates = settings: cited from earlier work
# [8] = tested on: F9 embryonal carcinoma cells; parameters: method as in Willams and Napoli, 1985; settings: ref Willams and Napoli, 1985; cited from earlier work
# [9] = read-out: Km value of all-trans-RA catabolism
# [10] = ref Krekels et al, 1995, read-out: IC50 value for inhibition of all-trans-RA catabolism
compound,measurement,setting,value
CC1=C(/C=C/C(C)=C/C=C/C(C)=C/C(=O)O)C(C)(C)CCC1O (centres unmarked) [4-hydroxy-RA],"Potency in stimulating gene transcription, times less potent than RA",RARs,2-10 times
CC1=C(/C=C/C(C)=C/C=C/C(C)=C/C(=O)O)C(C)(C)CCC1O (stereo not drawn) [4-hydroxy-all-trans-RA],Differentiation-inducing activity relative to all-trans-RA,BA-HAN-IC,significantly weaker
"CC1=C(/C=C/C(C)=C/C=C/C(C)=C\C(=O)O)C(C)(C)CCC1=O [4-keto-13-cis-RA, 4-keto-13-cis-retinoic acid]",IC50,[1],6600 nM
same,"Activity in inhibiting all-trans-RA catabolism, times less than all-trans-RA",[1],about 50 times
same,Viability of the cells after preincubation,MCF-7 cells [2],did not decrease viability
CC1=C(/C=C/C(C)=C/C=C/C(C)=C/C(=O)O)C(C)(C)CCC1=O [4-keto-RA],"Potency in stimulating gene transcription, times less potent than RA",RARs,2-10 times
"CC1=C(/C=C/C(C)=C/C=C/C(C)=C/C(=O)O)C(C)(C)CCC1=O [4-keto-all-trans-RA, 4-Keto-all-trans-retinoic acid]",IC50,[1],370 nM
same,"Inhibition of induced all-trans-RA catabolism, in words",[1],activity similar to that of all-trans-RA
same,Viability of the cells after preincubation,MCF-7 cells [2],did not decrease viability
same,Differentiation-inducing activity relative to all-trans-RA,BA-HAN-IC,significantly weaker
"CC1=C(/C=C/C(C)=C\C=C\C(C)=C\C(=O)O)C(C)(C)CCC1 [9-cis-RA, 9-cis-retinoic acid]",Potency in inducing differentiation relative to all-trans-RA,HL-60 leukaemia cells,equipotent to 10-fold as active
same,IC50,"[1]; Homo sapiens, MCF7",1890 nM
same,"Activity in inhibiting all-trans-RA catabolism, times less than all-trans-RA",[1],about 15 times
same,Viability of the cells after preincubation,MCF-7 cells [3],did not decrease viability
"CC1=C(/C=C/C(C)=C/C=C/C(C)=C\C(=O)O)C(C)(C)CCC1 [13-cis-RA, 13-cis-retinoic acid]",Potency in inducing differentiation relative to all-trans-RA,HL-60 leukaemia cells,equipotent
same,"Activity in inhibiting all-trans-RA catabolism, times less than all-trans-RA",[1],5 times
same,Viability of the cells after preincubation,MCF-7 cells [3],did not decrease viability
"CC(C)(C)c1cc(C(=O)/C=C/c2ccc(C(=O)O)cc2)cc(C(C)(C)C)c1 [CH55, (E)-4-[3-(3,5-di-tert-butylphenyl)-3-oxo-l-propenyl]benzoic acid]","Biological activity, times higher than that of all-trans-RA",[4],20-25 times
same,IC50,[1],> 10000 nM
same,"Inhibition of induced all-trans-RA catabolism, in words",[1],did not inhibit
same,Viability of the cells after preincubation,MCF-7 cells [3],did not decrease viability
"Cc1c2oc3c(C)ccc(C(=O)N[C@@H]4C(=O)N[C@H](C(C)C)C(=O)N5CCC[C@H]5C(=O)N(C)CC(=O)N(C)[C@@H](C(C)C)C(=O)O[C@@H]4C)c3nc-2c(C(=O)N[C@@H]2C(=O)N[C@H](C(C)C)C(=O)N3CCC[C@H]3C(=O)N(C)CC(=O)N(C)[C@@H](C(C)C)C(=O)O[C@@H]2C)c(N)c1=O [actinomycin D] (I: T[dV]P[Sar][NMeV] / II: T[dV]P[Sar][NMeV]; ester I:1-I:C, II:1-II:C; linker I:N-II:N via Actinocin(9to1))",RA catabolism (% of control),[5]; actinomycin D 0.1 μg ml-1 with 10^-6 M all-trans-RA,14.3 % of control
same,RA catabolism (% of control),[5]; actinomycin D 1 μg ml-1 with 10^-6 M all-trans-RA,11.7 % of control
"CC1=C(/C=C/C(C)=C/C=C/C(C)=C/C(=O)O)C(C)(C)CCC1 [all-trans-RA, All-trans-retinoic acid]",Km,hamster liver microsomes; ref Roberts et al (1980),1.1 µM
same,Km,hamster liver microsomes; ref Van Wauwe et al (1988),12.5 µM
same,Km,[6]; [9],1.7 µM
same,Reduction in CRABP-II mRNA,"CRABP-II mRNA; 10^-7 M all-trans-RA, 24 h",20%
same,Expression of CRABP-I mRNA after treatment,"CRABP-II mRNA; CRABP-I mRNA, results not shown",remained low
same,"Inhibition of induced all-trans-RA catabolism, in words",[1],most active compound
same,Km,[7],0.33 µM
same,Viability of the cells after preincubation,MCF-7 cells [3],did not decrease viability
same,Preincubation period to maximal induction,[5]; 10^-6 M all-trans-RA,16 h and 16 to 24 h
same,Time for induction to decrease to the constitutive level after wash-out,"[5]; 16 h induction with 10^-6 M all-trans-RA, then wash-out",≤ 24 h
same,Onset of induction detectable,[5]; preincubation with all-trans-RA,≤ 60 min
same,Km,rat liver homogenates; [9],4.3 µM
"Clc1cccc(C(c2ccc3[nH]cnc3c2)n2ccnc2)c1.Clc1cccc(C(c2ccc3[nH]cnc3c2)n2ccnc2)c1.O=C(O)/C=C/C(=O)O.O=C(O)/C=C/C(=O)O.O=C(O)/C=C/C(=O)O (stereo not drawn) [liarozole-fumarate, 5-[3(chlorophenyl)(lH-imidazole-l-yl)methyl]-IH-benzimidazole (E)-2-butenedioate(2:3)]",IC50,[6]; [10],260 nM
same,"Inhibition of induced all-trans-RA catabolism, in words",[1],potency similar to that of all-trans-RA
same,IC50,rat liver homogenates; [10],140 nM
"CC1=C(/C=C/C(C)=C/C=C/C(C)=C/CO)C(C)(C)CCC1 [retinol, Retinol]",Activity in inducing differentiation relative to all-trans-RA,[8],approximately 10%
same,"Inhibition of induced all-trans-RA catabolism, in words",[1],least active natural compound
same,Viability of the cells after preincubation,MCF-7 cells [3],did not decrease viability
